{"source": "paper PMC5218480", "about": "(PLoS ONE, 2017)", "tested_on": "MV-4-11 cells", "assay": "Gene expression microarray analysis (Affymetrix PrimeView) and GSEA", "assay_type": "cell-based, human", "set-up": "RFU PODN (11730768_x_at) / Fold change /veh PODN (11730768_x_at) / RFU LINC00158 (11744669_a_at) / Fold change /veh LINC00158 (11744669_a_at) / RFU DUSP10 (11751237_a_at) / Fold change /veh DUSP10 (11751237_a_at) / RFU ID3 (11757404_x_at) / Fold change /veh ID3 (11757404_x_at) / RFU PLEKHG5 (11737974_s_at) / Fold change /veh PLEKHG5 (11737974_s_at) / RFU LRRC4B (11730491_at) / Fold change /veh LRRC4B (11730491_at) / RFU GIMAP4 (11747438_a_at) / Fold change /veh GIMAP4 (11747438_a_at) / RFU KRT8 (11758183_x_at) / Fold change /veh KRT8 (11758183_x_at) / RFU CNN1 (11734310_a_at) / Fold change /veh CNN1 (11734310_a_at) / RFU VPS37D (11726825_at) / Fold change /veh VPS37D (11726825_at) / RFU C10orf10 (11716522_x_at) / Fold change /veh C10orf10 (11716522_x_at) / RFU KIR2DL2 /// KIR2DL4 /// KIR2DL5A /// KIR2DL5B /// KIR2DS1 /// KIR2DS2 /// KIR2DS3 /// KIR2DS4 /// KIR3DL3 /// KIR3DL3 /// KIR3DS1 (11738374_at) / Fold change /veh KIR2DL2 /// KIR2DL4 /// KIR2DL5A /// KIR2DL5B /// KIR2DS1 /// KIR2DS2 /// KIR2DS3 /// KIR2DS4 /// KIR3DL3 /// KIR3DL3 /// KIR3DS1 (11738374_at) / RFU C1QL1 (11718748_at) / Fold change /veh C1QL1 (11718748_at) / RFU TMPRSS4 (11747572_a_at) / Fold change /veh TMPRSS4 (11747572_a_at) / RFU HAMP (11756126_x_at) / Fold change /veh HAMP (11756126_x_at) / RFU RNFT2 (11725882_a_at) / Fold change /veh RNFT2 (11725882_a_at) / RFU NR4A2 (11747474_a_at) / Fold change /veh NR4A2 (11747474_a_at) / RFU ABCC12 (11746883_a_at) / Fold change /veh ABCC12 (11746883_a_at) / RFU TMEM136 (11760407_x_at) / Fold change /veh TMEM136 (11760407_x_at) / RFU CLDN22 /// WWC2 (11732394_at) / Fold change /veh CLDN22 /// WWC2 (11732394_at) / RFU HLA-DPB1 (11760878_x_at) / Fold change /veh HLA-DPB1 (11760878_x_at) / RFU SPINT1 (11716480_a_at) / Fold change /veh SPINT1 (11716480_a_at) / RFU GAP43 (11754022_s_at) / Fold change /veh GAP43 (11754022_s_at) / RFU A4GNT (11735810_at) / Fold change /veh A4GNT (11735810_at) / RFU PRB3 (11715151_x_at) / Fold change /veh PRB3 (11715151_x_at) / RFU TUBB4B (11761932_at) / Fold change /veh TUBB4B (11761932_at) / RFU CAPN14 (11732068_a_at) / Fold change /veh CAPN14 (11732068_a_at) / RFU TMCC2 (11721928_a_at) / Fold change /veh TMCC2 (11721928_a_at) / RFU IRGQ (11745062_a_at) / Fold change /veh IRGQ (11745062_a_at) / RFU FAM174B (11720279_a_at) / Fold change /veh FAM174B (11720279_a_at) / RFU TMPRSS4 (11748680_a_at) / Fold change /veh TMPRSS4 (11748680_a_at) / RFU FAM212B (11763350_a_at) / Fold change /veh FAM212B (11763350_a_at) / RFU PLEKHG5 (11743358_a_at) / Fold change /veh PLEKHG5 (11743358_a_at) / RFU ZSCAN30 (11745921_a_at) / Fold change /veh ZSCAN30 (11745921_a_at) / RFU CMKLR1 (11741424_a_at) / Fold change /veh CMKLR1 (11741424_a_at) / RFU LOC101060620 /// MAPK8IP1 (11723275_at) / Fold change /veh LOC101060620 /// MAPK8IP1 (11723275_at) / RFU SPTSSB (11747773_x_at) / Fold change /veh SPTSSB (11747773_x_at) / RFU PRSS12 (11739890_at) / Fold change /veh PRSS12 (11739890_at) / RFU BIN1 (11741810_x_at) / Fold change /veh BIN1 (11741810_x_at) / RFU WNT11 (11732464_a_at) / Fold change /veh WNT11 (11732464_a_at) / RFU C10orf10 (11716521_a_at) / Fold change /veh C10orf10 (11716521_a_at) / RFU C5orf56 (11738089_at) / Fold change /veh C5orf56 (11738089_at) / RFU CYB561 (11721691_x_at) / Fold change /veh CYB561 (11721691_x_at) / RFU ANKRD19P (11752326_a_at) / Fold change /veh ANKRD19P (11752326_a_at) / RFU OR2T12 /// OR2T33 /// OR2T8 (11738714_s_at) / Fold change /veh OR2T12 /// OR2T33 /// OR2T8 (11738714_s_at) / RFU VCAN (11748164_a_at) / Fold change /veh VCAN (11748164_a_at) / RFU JSRP1 (11732532_at) / Fold change /veh JSRP1 (11732532_at) / RFU KRTAP10-11 (11738290_x_at) / Fold change /veh KRTAP10-11 (11738290_x_at) / RFU MYO3A (11730013_a_at) / Fold change /veh MYO3A (11730013_a_at) / RFU EBF3 (11725865_a_at) / Fold change /veh EBF3 (11725865_a_at) / RFU CAMK2N1 (11719241_x_at) / Fold change /veh CAMK2N1 (11719241_x_at) / RFU C5orf56 (11738088_a_at) / Fold change /veh C5orf56 (11738088_a_at) / RFU OLFML3 (11715873_a_at) / Fold change /veh OLFML3 (11715873_a_at) / RFU LOC100653217 /// NTM (11731650_a_at) / Fold change /veh LOC100653217 /// NTM (11731650_a_at) / RFU MAPK11 (11762145_a_at) / Fold change /veh MAPK11 (11762145_a_at) / RFU FIZ1 (11724087_x_at) / Fold change /veh FIZ1 (11724087_x_at) / RFU OASL (11726364_x_at) / Fold change /veh OASL (11726364_x_at) / RFU SOX15 (11748057_x_at) / Fold change /veh SOX15 (11748057_x_at) / RFU CD79A (11719716_a_at) / Fold change /veh CD79A (11719716_a_at) / RFU HIST1H1D (11736915_at) / Fold change /veh HIST1H1D (11736915_at) / RFU CASKIN2 (11723855_a_at) / Fold change /veh CASKIN2 (11723855_a_at) / RFU LOC730098 (11760151_x_at) / Fold change /veh LOC730098 (11760151_x_at) / RFU OR4N2 (11742367_at) / Fold change /veh OR4N2 (11742367_at) / RFU PRRT2 (11749266_a_at) / Fold change /veh PRRT2 (11749266_a_at) / RFU SNX32 (11753110_a_at) / Fold change /veh SNX32 (11753110_a_at) / RFU CDHR5 (11726645_a_at) / Fold change /veh CDHR5 (11726645_a_at) / RFU RCAN1 (11760418_a_at) / Fold change /veh RCAN1 (11760418_a_at) / RFU FAM167A (11723789_a_at) / Fold change /veh FAM167A (11723789_a_at) / RFU FAM26E (11764081_at) / Fold change /veh FAM26E (11764081_at) / RFU ISYNA1 (11749810_s_at) / Fold change /veh ISYNA1 (11749810_s_at) / RFU ACY1 (11761880_at) / Fold change /veh ACY1 (11761880_at) / RFU 11764098_at / Fold change /veh 11764098_at / RFU SAMD14 (11745864_x_at) / Fold change /veh SAMD14 (11745864_x_at) / RFU NPB (11741838_a_at) / Fold change /veh NPB (11741838_a_at) / RFU TMPRSS6 (11731388_a_at) / Fold change /veh TMPRSS6 (11731388_a_at) / RFU KRTAP10-2 (11738614_at) / Fold change /veh KRTAP10-2 (11738614_at) / RFU ARHGAP8 /// PRR5-ARHGAP8 (11727945_x_at) / Fold change /veh ARHGAP8 /// PRR5-ARHGAP8 (11727945_x_at) / RFU KRTAP5-7 /// NADSYN1 (11734609_at) / Fold change /veh KRTAP5-7 /// NADSYN1 (11734609_at) / RFU RASL12 (11751679_a_at) / Fold change /veh RASL12 (11751679_a_at) / RFU CDKN2B (11736163_a_at) / Fold change /veh CDKN2B (11736163_a_at) / RFU PRF1 (11729649_at) / Fold change /veh PRF1 (11729649_at) / RFU, ZNF638 /// ZNF638-IT1 / Fold change vs veh, ZNF638 /// ZNF638-IT1 / RFU, PANK3 / Fold change vs veh, PANK3 / RFU, SH3YL1 / Fold change vs veh, SH3YL1 / RFU, ZEB2 / Fold change vs veh, ZEB2 / RFU, NRIP1 / Fold change vs veh, NRIP1 / RFU, PTTG1IP / Fold change vs veh, PTTG1IP / RFU, CAPN2 / Fold change vs veh, CAPN2 / RFU, MED14 / Fold change vs veh, MED14 / RFU, SNORA58 / Fold change vs veh, SNORA58 / RFU, C1orf63 / Fold change vs veh, C1orf63 / RFU, LRRFIP1 / Fold change vs veh, LRRFIP1 / RFU, NDUFAF7 / Fold change vs veh, NDUFAF7 / RFU, SLC12A2 / Fold change vs veh, SLC12A2 / RFU, IBTK / Fold change vs veh, IBTK / RFU, ESF1 / Fold change vs veh, ESF1 / Fold change vs veh, TMEM50B / RFU, TAOK1 / Fold change vs veh, TAOK1 / RFU, ACBD3 / Fold change vs veh, ACBD3 / RFU, TMA16 / Fold change vs veh, TMA16 / RFU, RWDD3 / Fold change vs veh, RWDD3 / RFU, BCAT1 / Fold change vs veh, BCAT1 / RFU, EDEM3 / Fold change vs veh, EDEM3 / RFU, TMEM33 / Fold change vs veh, TMEM33 / RFU, WDR75 / Fold change vs veh, WDR75 / RFU, AHCTF1 / Fold change vs veh, AHCTF1 / RFU, TFRC / Fold change vs veh, TFRC / RFU, ZDHHC17 / Fold change vs veh, ZDHHC17 / RFU, NOM1 / Fold change vs veh, NOM1 / RFU, ARL8B / Fold change vs veh, ARL8B / RFU, ZBTB11 / Fold change vs veh, ZBTB11 / RFU, TAMM41 / Fold change vs veh, TAMM41 / RFU, KIAA1704 /// LOC100996395 / Fold change vs veh, KIAA1704 /// LOC100996395 / RFU, ING1 / Fold change vs veh, ING1 / RFU, TRMT61B / Fold change vs veh, TRMT61B / RFU, FUBP3 / Fold change vs veh, FUBP3 / RFU, TP53 / Fold change vs veh, TP53 / RFU, TNKS2 / Fold change vs veh, TNKS2 / RFU, ZFP14 / Fold change vs veh, ZFP14 / RFU, ACTR2 / Fold change vs veh, ACTR2 / RFU, PPP3R1 / Fold change vs veh, PPP3R1 / RFU, PIK3R1 / Fold change vs veh, PIK3R1 / RFU, HNRNPA1 / Fold change vs veh, HNRNPA1 / RFU, RNF170 / Fold change vs veh, RNF170 / RFU, ZNF28 / Fold change vs veh, ZNF28 / RFU, RNGTT / Fold change vs veh, RNGTT / RFU, OGT / Fold change vs veh, OGT / RFU, BRD1 / Fold change vs veh, BRD1 / RFU, MARS / Fold change vs veh, MARS / RFU, ZNF655 / Fold change vs veh, ZNF655 / RFU, FAHD1 / Fold change vs veh, FAHD1 / RFU, BDP1 / Fold change vs veh, BDP1 / RFU, LRRCC1 / Fold change vs veh, LRRCC1 / RFU, ARID1A / Fold change vs veh, ARID1A / RFU, ZNF146 / Fold change vs veh, ZNF146 / RFU, ZNF330 / Fold change vs veh, ZNF330 / RFU, GPN3 / Fold change vs veh, GPN3 / RFU, C9orf123 / Fold change vs veh, C9orf123 / RFU, N4BP2L2 / Fold change vs veh, N4BP2L2 / RFU, ARFIP1 / Fold change vs veh, ARFIP1 / RFU, FAM179B / Fold change vs veh, FAM179B / RFU, BCL10 / Fold change vs veh, BCL10 / RFU, UHRF1BP1L / Fold change vs veh, UHRF1BP1L / RFU, BET1 / Fold change vs veh, BET1 / RFU, CNOT2 / Fold change vs veh, CNOT2 / RFU, ZNF268 / Fold change vs veh, ZNF268 / Fold change vs veh, ZNF507 / RFU, DGCR2 / Fold change vs veh, DGCR2 / RFU, WDSUB1 / Fold change vs veh, WDSUB1 / Fold change vs veh, HSP90B1 /// MIR3652 / RFU, ADSS / Fold change vs veh, ADSS / RFU, GK / Fold change vs veh, GK / RFU, ZNF148 / Fold change vs veh, ZNF148 / RFU, TAF9 / Fold change vs veh, TAF9 / RFU, SLC1A5 / Fold change vs veh, SLC1A5 / RFU, SLMO2 / Fold change vs veh, SLMO2 / RFU, ABCC4 / Fold change vs veh, ABCC4 / RFU, LOC101060439 /// RAP1B / Fold change vs veh, LOC101060439 /// RAP1B / RFU, RFX7 / Fold change vs veh, RFX7 / RFU, GTPBP10 / Fold change vs veh, GTPBP10 / RFU, CNEP1R1 / Fold change vs veh, CNEP1R1 / RFU, BIVM-ERCC5 /// ERCC5 / Fold change vs veh, BIVM-ERCC5 /// ERCC5 / RFU, ILF3 / Fold change vs veh, ILF3 / RFU 11762660_at / Fold change /veh 11762660_at / RFU VCAN (11757783_s_at) / Fold change /veh VCAN (11757783_s_at) / RFU DDX43 (11728927_at) / Fold change /veh DDX43 (11728927_at) / RFU KRT8 (11758188_x_at) / Fold change /veh KRT8 (11758188_x_at) / RFU NKD1 (11759106_at) / Fold change /veh NKD1 (11759106_at) / RFU SRD5A1 (11742802_a_at) / Fold change /veh SRD5A1 (11742802_a_at) / RFU TPSAB1 /// TPSB2 (11721975_s_at) / Fold change /veh TPSAB1 /// TPSB2 (11721975_s_at) / RFU GSTM3 (11746129_a_at) / Fold change /veh GSTM3 (11746129_a_at) / RFU IL23R (11737362_x_at) / Fold change /veh IL23R (11737362_x_at) / RFU TMEM51 (11727254_a_at) / Fold change /veh TMEM51 (11727254_a_at) / RFU PIWIL2 (11732686_x_at) / Fold change /veh PIWIL2 (11732686_x_at) / RFU ORM1 (11744905_x_at) / Fold change /veh ORM1 (11744905_x_at) / RFU CCDC152 (11743942_at) / Fold change /veh CCDC152 (11743942_at) / RFU ECM1 (11717891_a_at) / Fold change /veh ECM1 (11717891_a_at) / RFU IL23R (11748794_a_at) / Fold change /veh IL23R (11748794_a_at) / RFU TNFAIP8L3 (11732012_x_at) / Fold change /veh TNFAIP8L3 (11732012_x_at) / RFU MBOAT4 (11741988_at) / Fold change /veh MBOAT4 (11741988_at) / RFU 11764193_at / Fold change /veh 11764193_at / RFU TMEM53 (11763286_at) / Fold change /veh TMEM53 (11763286_at) / RFU MAGEB2 (11727129_at) / Fold change /veh MAGEB2 (11727129_at) / RFU TMEM200A (11744735_a_at) / Fold change /veh TMEM200A (11744735_a_at) / RFU CCDC152 (11751479_a_at) / Fold change /veh CCDC152 (11751479_a_at) / RFU FAM211A (11726209_a_at) / Fold change /veh FAM211A (11726209_a_at) / RFU RGS16 (11746705_a_at) / Fold change /veh RGS16 (11746705_a_at) / RFU VCAN (11755009_s_at) / Fold change /veh VCAN (11755009_s_at) / RFU RHOB (11743442_s_at) / Fold change /veh RHOB (11743442_s_at) / RFU RGS16 (11720943_a_at) / Fold change /veh RGS16 (11720943_a_at) / RFU RGS16 (11720944_at) / Fold change /veh RGS16 (11720944_at) / RFU, VPS4B / Fold change vs veh, VPS4B / RFU, CREB1 / Fold change vs veh, CREB1 / RFU, DNAJC13 / Fold change vs veh, DNAJC13 / RFU, GNAQ / Fold change vs veh, GNAQ / RFU, CDK5R1 / Fold change vs veh, CDK5R1 / RFU, ZRANB3 / Fold change vs veh, ZRANB3 / RFU, CUL4A / Fold change vs veh, CUL4A / RFU, CCNY / Fold change vs veh, CCNY / RFU, UFL1 / Fold change vs veh, UFL1 / RFU, COG3 / Fold change vs veh, COG3 / RFU, DIAPH2 / Fold change vs veh, DIAPH2 / RFU, SKA2 / Fold change vs veh, SKA2 / RFU, AFF3 / Fold change vs veh, AFF3 / RFU, LMF1 / Fold change vs veh, LMF1 / RFU, IPO11 / Fold change vs veh, IPO11 / RFU, DFFB / Fold change vs veh, DFFB / RFU, FOXP1 / Fold change vs veh, FOXP1 / RFU, CARD8 / Fold change vs veh, CARD8 / RFU, STRN3 / Fold change vs veh, STRN3 / RFU, ADK / Fold change vs veh, ADK / RFU, RASSF2 / Fold change vs veh, RASSF2 / RFU, WIPF1 / Fold change vs veh, WIPF1 / RFU, LARP1B / Fold change vs veh, LARP1B / RFU, RASA1 / Fold change vs veh, RASA1 / RFU, RB1 / Fold change vs veh, RB1 / RFU, PPFIA1 / Fold change vs veh, PPFIA1 / RFU, MAT2A / Fold change vs veh, MAT2A / RFU, CCT5 / Fold change vs veh, CCT5 / RFU, WDR92 / Fold change vs veh, WDR92 / RFU, CUX1 / Fold change vs veh, CUX1 / RFU, TTC7A / Fold change vs veh, TTC7A / RFU, TMEM135 / Fold change vs veh, TMEM135 / RFU, DEPTOR / Fold change vs veh, DEPTOR / RFU, CPM / Fold change vs veh, CPM / RFU, DNAJB6 / Fold change vs veh, DNAJB6 / RFU, CACNA2D3 / Fold change vs veh, CACNA2D3 / RFU, DTX4 / Fold change vs veh, DTX4 / RFU, TFCP2 / Fold change vs veh, TFCP2 / RFU, GMCL1 /// GMCL1P1 / Fold change vs veh, GMCL1 /// GMCL1P1 / RFU, AEBP2 / Fold change vs veh, AEBP2 / RFU, SNHG1 /// SNORD22 /// SNORD25 /// SNORD26 /// SNORD27 /// SNORD28 /// SNORD29 /// SNORD31 / Fold change vs veh, SNHG1 /// SNORD22 /// SNORD25 /// SNORD26 /// SNORD27 /// SNORD28 /// SNORD29 /// SNORD31 / Fold change (Aza/veh), C12orf56 (ProbeSet 11735607_a_at) / Fold change (ACY-1035/veh), C12orf56 (ProbeSet 11735607_a_at) / Fold change (Aza/veh), FGFR1OP (ProbeSet 11751329_s_at) / Fold change (ACY-1035/veh), FGFR1OP (ProbeSet 11751329_s_at) / Fold change (Aza/veh), VPS36 (ProbeSet 11739960_a_at) / Fold change (ACY-1035/veh), VPS36 (ProbeSet 11739960_a_at) / RFU SYPL1 (11715823_x_at) / Fold change /veh SYPL1 (11715823_x_at) / RFU IGFBP7 (11715501_s_at) / Fold change /veh IGFBP7 (11715501_s_at) / RFU REEP3 (11722064_at) / Fold change /veh REEP3 (11722064_at) / RFU IGLL1 (11728026_x_at) / Fold change /veh IGLL1 (11728026_x_at): dose or concentration left out as unconfirmed", "details": "ProbeSet 11720566_at; LIST D", "data": [{"compound": "Nc1ncn([C@@H]2O[C@H](CO)[C@@H](O)[C@H]2O)c(=O)n1", "note": "[azacitidine]", "values": [{"measurement": "RFU, BCAT1", "value": 650.05, "unit": "RFU"}]}]}
